Test results published in patent US12297164B2, “Benzidine compound and application thereof” (Guangzhou IMD therapeutics Co., Ltd., priority 2019, dated 2025).
Blank lines part the entries; values can stand above or below the molecule they belong to.

Legend:
[1] = target: T1, RORγ (Homo sapiens (Human), UniProt P51449); test: AlphaScreen inhibitory activity on RORγ protein; assay type: biochemical; details: RORγ 200 nM, bSRC1-4 50 nM
Method: Experimental materials: target protein RORγ with the final concentration of 200 nM; experimental buffer (10×) MOPS (500 mM) PH 7.4, CHAPS (0.5 mM), NaF (500 mM), and
The mixture was centrifuged at room temperature at 1000 rpm for 1 minute to make the system fully mixed. After being wrapped in tin foil, the mixture was incubated in the dark for 1.5 hours.
Target sequence in this assay (P51449 whole entry): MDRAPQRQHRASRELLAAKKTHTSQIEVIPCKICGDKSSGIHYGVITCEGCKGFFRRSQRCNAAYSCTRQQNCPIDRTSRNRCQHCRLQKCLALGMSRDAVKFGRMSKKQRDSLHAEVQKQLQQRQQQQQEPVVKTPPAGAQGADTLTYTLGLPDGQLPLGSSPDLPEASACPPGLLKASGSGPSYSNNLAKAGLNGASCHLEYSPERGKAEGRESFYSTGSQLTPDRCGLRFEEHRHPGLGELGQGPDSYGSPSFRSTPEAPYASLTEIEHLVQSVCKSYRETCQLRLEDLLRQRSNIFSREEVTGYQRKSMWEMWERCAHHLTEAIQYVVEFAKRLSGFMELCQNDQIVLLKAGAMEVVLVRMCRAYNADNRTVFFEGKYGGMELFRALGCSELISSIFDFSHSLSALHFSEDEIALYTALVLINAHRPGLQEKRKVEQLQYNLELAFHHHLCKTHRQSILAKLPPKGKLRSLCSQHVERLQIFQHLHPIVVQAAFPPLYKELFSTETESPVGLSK

[2] = target: T1, RORγ; test: Luciferase double reporter gene assay (Gal4-RORγLBD) in 293T cells; assay type: cell-based; details: 24 hours of incubation
Method: (§1) The cells were cultured in a 96-well plate one day before transfection, with a cell density of 1.5×10^4 cells/well. After 24 hours of adherent growth, the cells were subjected to transient transfection by using the method of double reporter gene co-transfection with the transfection reagent of Lipo-fectamine 2000, where the transfection reagent and plasmids were diluted with Opti-MEM reagent, respectively. […] Each sample had 3 duplicate wells.
Target sequence in this assay (P51449 269-508): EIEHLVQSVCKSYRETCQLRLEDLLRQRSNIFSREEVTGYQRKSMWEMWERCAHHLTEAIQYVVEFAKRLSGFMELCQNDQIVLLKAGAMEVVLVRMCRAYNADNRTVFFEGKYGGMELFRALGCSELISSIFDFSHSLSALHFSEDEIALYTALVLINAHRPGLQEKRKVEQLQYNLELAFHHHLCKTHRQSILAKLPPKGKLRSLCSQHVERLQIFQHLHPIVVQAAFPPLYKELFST

[3] = target: T1, RORγ; test: TSA detection (thermal shift); assay type: binding; details: protein 10 μM
Method: Experimental materials: hRORγ protein, fluorescent dye Sypro Orange, 10p buffer, ultrapure water, and HSP-96 well reaction plates.
Experimental method: The diluted protein (with the final concentration of 10 μM), fluorescent dye (with the final concentration of 5×), 10× TSA buffer, and double distilled water were prepared into a mixed solution with final component volumes of 1 μL, 1 μL, 1 μL, and 2 μL, receptively. The mixed solution was transferred to an HSP-96 well reaction plate, 5 μL each well. The ligand, i.e., small molecule compound, was added, 5 μL per well, with the final concentration of 200 µM. The mixture was centrifuged at room temperature at 1000 rpm for 1 minute to make the system fully mixed. The mixture was placed on an ice bath in low light for more than 30 minutes, and after that, put into RT-PCR instrument for testing. The temperature was set from 30° C. to 80° C., and the mixture was detected every time the temperature was raised by 0.5° C. and every 5 seconds.
Target sequence in this assay (P51449 whole entry): as the sequence (P51449 whole entry) above

[4] = target: RORα (Homo sapiens (Human), UniProt P35398); test: Specificity luciferase reporter assay in 293T cells, RORα; assay type: cell-based; details: reporter gene
Sequence of RORα (P35398 whole entry): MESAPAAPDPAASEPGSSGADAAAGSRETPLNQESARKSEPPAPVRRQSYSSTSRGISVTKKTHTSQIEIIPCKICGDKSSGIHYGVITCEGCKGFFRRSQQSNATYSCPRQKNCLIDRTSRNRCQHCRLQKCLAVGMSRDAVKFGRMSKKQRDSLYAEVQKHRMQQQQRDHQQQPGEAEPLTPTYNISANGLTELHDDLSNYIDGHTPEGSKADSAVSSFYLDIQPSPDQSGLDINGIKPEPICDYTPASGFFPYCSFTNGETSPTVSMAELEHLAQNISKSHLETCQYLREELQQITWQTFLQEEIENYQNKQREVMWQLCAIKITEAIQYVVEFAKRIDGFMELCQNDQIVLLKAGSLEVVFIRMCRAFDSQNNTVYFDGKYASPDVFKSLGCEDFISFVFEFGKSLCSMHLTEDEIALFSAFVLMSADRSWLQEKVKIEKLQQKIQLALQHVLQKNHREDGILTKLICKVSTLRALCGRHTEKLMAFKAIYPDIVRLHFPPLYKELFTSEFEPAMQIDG
Method: as §1, with “and” for “where”

[5] = target: T1, RORγ; test: ITC binding activity; details: read-out: Kd ITC, 25° C., pH 7.5
Target sequence in this assay (P51449 whole entry): as the sequence (P51449 whole entry) above

[6] = Pharmacokinetics in SD rats
Method: MATERIALS: Pharmacokinetic analysis was performed by Medicilon Corporation in Shanghai. Twelve Sprague and Dawley rats were provided by Super-B&K laboratory animal Corp. Ltd in Shanghai.
Experimental method: The compound was dissolved in DMSO:PEG 400:20% HP-400 (5:40:55, v:v:v) to serve as a stock solution (0.4 mg/ml, intravenous injection; 1 mg/ml, oral administration). The stock solution was administrated orally to three SD rats at a dose of 10 mg/kg, and administrated intravenously to three SD rats at a single dose of 2 mg/kg. Blood was collected from the jugular vein before oral administration and at 0.25, 0.5, 1, 2, 4, 6, 8, and 24 hours after oral administration. Blood was collected from the jugular vein before intravenous injection and at 0.083, 0.25, 0.5, 1, 2, 4, 6, 8, and 24 hours after intravenous injection. About 200 μL of blood sample was collected into a heparinized tube and immediately centrifuged at 8000 rpm for 6 minutes, and the resulting plasma was stored at −80° C. until analysis.

[7] = target: T1, RORγ; test: Specificity luciferase reporter assay in 293T cells, RORγ; details: read-out: IC50 RORγ, reporter gene
Target sequence in this assay (P51449 269-508): as the sequence (P51449 269-508) above
Method: The cells were cultured in a 96-well plate one day before transfection, with a cell density of 1.5×10^4 cells/well. After 24 hours of adherent growth, the cells were subjected to transient transfection by using the method of double reporter gene co-transfection with the transfection reagent of Lipo-fectamine 2000, and the transfection reagent and plasmids were diluted with Opti-MEM reagent, respectively. Gal4-RORγLBD was 25 ng per well; PG5-luc gene was 25 ng per well; and Renilla was 5 ng per well. After 24 hours of co-transfection, different concentrations of compounds were added. After 24 hours of incubation, Luciferase double reporter gene detection kit was used to detect luminescence signals. Each sample had 3 duplicate wells. The IC50 value (half inhibitory concentration) was calculated by software.

[8] = test system: 293T (human renal epithelial cell line transfected with adenovirus E1A gene, expressing SV40 large T antigen); test: Cell-Titer GLO cell inhibition; assay type: cell-based; details: 293T
Method: (§2) Experimental materials: fluorescence signal detection instrument: EnSpire Alpha 2390 multifunctional microplate reader (produced by Perkin Elmer Company); 384-well bottom permeable microwell plate; Cell-Titer GLO luminescent reagent; cancer cells to be tested; medium and fetal bovine serum required for cell culture.
(§3) […]. After incubation with the compound for 72 to 144 hours, Cell-Titer GLO reagent 25-T was added to each well, and the plate was shaken for 20 minutes to lyse the cells. After incubation for 10 minutes, the cells were centrifuged for 1 minute, the signal value of luminescence 384 was measured. The inhibition curve was fitted by GraphPad Prism software to obtain IC50.

[9] = test system: A549 (non-small cell lung cancer); test: Cell-Titer GLO cell inhibition; assay type: cell-based
Method: as §2, §3

[10] = test system: Cos7 (African green monkey kidney cells); test: Cell-Titer GLO cell inhibition; assay type: cell-based; details: Cos7; read-out: IC50
Method: as §2, §3

[11] = test system: H1975 (lung cancer cells); test: Cell-Titer GLO cell inhibition; assay type: cell-based; details: H1975
Method: as §2, §3

[12] = test system: HFL-1 (lung fibroblasts); test: Cell-Titer GLO cell inhibition; assay type: cell-based; details: HFL-1; ~ = estimate; read-out: IC50
Method: as §2, §3

[13] = test system: HT-29 (colon cancer); test: Cell-Titer GLO cell inhibition; assay type: cell-based; details: read-out: IC50
Method: as §2, §3

[14] = test system: Hs578T (triple negative breast cancer); test: Cell-Titer GLO cell inhibition; assay type: cell-based; details: Hs578T
Method: as §2, §3

[15] = test system: MCF-7 (ER + breast cancer); test: Cell-Titer GLO cell inhibition; assay type: cell-based; details: MCF-7
Method: as §2, §3

[16] = test system: MV-4-11 (acute leukemia); test: Cell-Titer GLO cell inhibition; assay type: cell-based; details: MV-4-11; read-out: IC50
Method: as §2, §3

[17] = test system: U2OS (osteosarcoma); test: Cell-Titer GLO cell inhibition; assay type: cell-based
Method: as §2, §3

[18] = test system: VcaP (AR-positive prostate cancer); test: Cell-Titer GLO cell inhibition; assay type: cell-based; details: VcaP; 72 to 144 hours; read-out: IC50
Method: as §2, §3

[19] = test system: C4-2B (AR-positive prostate cancer); test: Cell-Titer GLO cell inhibition; assay type: cell-based; details: 72 to 144 hours
Description: (§4) The inhibition curve was fitted by GraphPad Prism software to obtain IC50.

[20] = test system: Du145 (AR-negative prostate cancer); test: Cell-Titer GLO cell inhibition; assay type: cell-based; details: Du145
Description: as §4

[21] = SD rats, intravenous injection, 2 mg/kg
[22] = Sprague-Dawley, rat, in vivo, iv, 2 mg/kg
[23] = Sprague-Dawley, rat, in vivo, po, 10 mg/kg

Compound: O=C(Cc1ccccc1[N+](=O)[O-])Nc1ccc(-c2ccc(C(O)(C(F)(F)F)C(F)(F)F)cc2F)cc1 [Example 4, N-(2′-fluoro-4′-(1,1,1,3,3,3-hexafluoro-2-hydroxypropan-2-yl)-[1,1′-biphenyl]-4-yl)-2-(2-nitrophenyl)acetamide]
IC50 [1]: 3.46 ± 1.32 µM | IC50 [2]: 0.19 µM | ΔTm [3]: 4.2 °C | inhibitory rate on RORα [4]: 37% | IC50 ([4]; NA = no inhibitory effect): 7.57 ± 0.01 µM | Kd [5]: 0.78 µM | Cl [6, 21]: 5.4445 ± 1.543 mL/min/kg | Tmax [6, 21]: 0.19 ± 0.10 h | Vz [6, 21]: 3.42 ± 0.594 L/kg | F ([6]; SD rats, oral administration 10 mg/kg vs intravenous 2 mg/kg): 19% | AUC(0-inf) [6, 22]: 6440 ± 1720 ng·h/mL | AUC(0-t) [6, 22]: 3330 ± 495 ng·h/mL | Cmax [6, 22]: 839 ± 38.1 ng/mL | half-life [6, 22]: 7.67 ± 2.36 h | AUC(0-t) [6, 23]: 3220 ± 781 ng·h/mL | Cmax [6, 23]: 721 ± 120 ng/mL | Tmax [6, 23]: 8 h | IC50 [7]: 0.19 ± 0.02 µM

IC50 [1]: 4.85 ± 0.04 µM | IC50 [2]: 1.49 µM | ΔTm [3]: 6 °C
Compound: O=C(Cc1ccc([N+](=O)[O-])cc1)Nc1ccc(-c2ccc(C(O)(C(F)(F)F)C(F)(F)F)cc2F)cc1 [Example 3, N-(2′-fluoro-4′-(1,1,1,3,3,3-hexafluoro-2-hydroxypropan-2-yl)-[1,1′-biphenyl]-4-yl)-2-(4-nitrophenyl)acetamide]

Compound: OC(c1ccc(-c2ccc(CN3CCN(Cc4ccncc4)CC3)cc2)c(F)c1)(C(F)(F)F)C(F)(F)F [SR2211, reference compound]
inhibition rate (value in brackets) [8]: 67% | IC50 ([8]; ~ = estimate, read-out: IC50): ~80 µM | inhibition rate (value in brackets) [9]: 55% | IC50 ([9]; ~ = estimate, read-out: IC50): ~10 µM | IC50 [10]: > 100 µM | inhibition rate (value in brackets) [11]: 41% | IC50 ([11]; read-out: IC50): 30.7 µM | IC50 [12]: > 50 µM | IC50 [13]: > 50 µM | inhibition rate (value in brackets) [14]: ~50% | IC50 ([14]; ~ = estimate, read-out: IC50): ~10 µM | inhibition rate (value in brackets) [15]: 42% | IC50 ([15]; ~ = estimate, read-out: IC50): ~9.98 µM | IC50 [16]: 11.5 µM | inhibition rate (value in brackets) [17]: 52% | IC50 ([17]; ~ = estimate, read-out: IC50): ~10 µM | IC50 [18]: 37.6 µM | IC50 [19]: 10.1 µM | inhibition rate (value in brackets) [20]: ~50% | IC50 ([20]; 72 to 144 hours, ~ = estimate, read-out: IC50): ~10 µM

Compound: CCCCC(=O)Nc1ccc(-c2ccc(C(O)(C(F)(F)F)C(F)(F)F)cc2F)cc1 [Example 7]
IC50 [1]: 10.2 ± 1.61 µM | IC50 [2]: 4.17 µM | ΔTm [3]: 6.3 °C
